Measured values published in patent publication US20250263395A1, “COMPOUNDS THAT MEDIATE PROTEIN DEGRADATION AND METHODS OF USE THEREOF” (Monte Rosa Therapeutics AG, priority 2022, published 2025).

Tests used:
CRBN-DDB1 = CRBN-DDB1 (Homo sapiens (Human), UniProt Q96SW2); test: CRBN HTRF assay (Cy5-Thalidomide probe displacement); format: binding; details: CRBN-DDB1 2.5 nM, Cy5-Thalidomide 100 nM, 30 min; Ki from geometric mean IC50 by Cheng-Prusoff
Summary of the method: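 HTRF displacement of Cy5-thalidomide probe (100 nM) from His-CRBN-DDB1 (2.5 nM) with anti-His terbium cryptate, in HEPES/NaCl/TCEP/EDTA/Tween20 buffer. 10-point 1:3 compound series, 30 min at ambient temperature; signal normalised to DMSO and lenalidomide controls, IC50 fitted and Ki derived by Cheng-Prusoff.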

CDK2 = CDK2 (Homo sapiens (Human), UniProt P24941); test: CDK2 NanoBiT assay (HiBiT-tagged CDK2 degradation); format: cell-based; details: HEK293, HEK293 clonal line, C-terminal HiBiT tag on CDK2, LgBiT; 24 hours
Summary of the method: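 HEK293 line with CRISPR knock-in C-terminal HiBiT-tagged CDK2 and stable LgBiT, preincubated 16 h with live-cell substrate, then compound-treated 24 h at 37° C, 5% CO2 (30 μM stock). Luminescence normalized to plate negative and positive controls; EC50 from 3-parameter logistic fit, Hill slope 1.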

CRBN-DDB1, sequence (Q96SW2 whole entry): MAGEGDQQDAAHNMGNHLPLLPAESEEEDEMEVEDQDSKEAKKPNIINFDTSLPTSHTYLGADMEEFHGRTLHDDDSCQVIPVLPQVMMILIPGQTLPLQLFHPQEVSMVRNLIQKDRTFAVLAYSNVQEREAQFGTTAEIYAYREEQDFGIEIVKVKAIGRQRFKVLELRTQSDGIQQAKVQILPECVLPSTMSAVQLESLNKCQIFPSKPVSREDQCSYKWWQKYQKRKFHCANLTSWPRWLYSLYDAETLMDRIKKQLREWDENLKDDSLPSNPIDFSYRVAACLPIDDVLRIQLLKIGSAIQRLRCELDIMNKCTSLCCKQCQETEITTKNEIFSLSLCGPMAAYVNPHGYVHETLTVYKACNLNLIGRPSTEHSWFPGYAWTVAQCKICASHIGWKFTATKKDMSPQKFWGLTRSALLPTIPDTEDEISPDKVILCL
CRBN-DDB1, sequence (Q16531 whole entry partner): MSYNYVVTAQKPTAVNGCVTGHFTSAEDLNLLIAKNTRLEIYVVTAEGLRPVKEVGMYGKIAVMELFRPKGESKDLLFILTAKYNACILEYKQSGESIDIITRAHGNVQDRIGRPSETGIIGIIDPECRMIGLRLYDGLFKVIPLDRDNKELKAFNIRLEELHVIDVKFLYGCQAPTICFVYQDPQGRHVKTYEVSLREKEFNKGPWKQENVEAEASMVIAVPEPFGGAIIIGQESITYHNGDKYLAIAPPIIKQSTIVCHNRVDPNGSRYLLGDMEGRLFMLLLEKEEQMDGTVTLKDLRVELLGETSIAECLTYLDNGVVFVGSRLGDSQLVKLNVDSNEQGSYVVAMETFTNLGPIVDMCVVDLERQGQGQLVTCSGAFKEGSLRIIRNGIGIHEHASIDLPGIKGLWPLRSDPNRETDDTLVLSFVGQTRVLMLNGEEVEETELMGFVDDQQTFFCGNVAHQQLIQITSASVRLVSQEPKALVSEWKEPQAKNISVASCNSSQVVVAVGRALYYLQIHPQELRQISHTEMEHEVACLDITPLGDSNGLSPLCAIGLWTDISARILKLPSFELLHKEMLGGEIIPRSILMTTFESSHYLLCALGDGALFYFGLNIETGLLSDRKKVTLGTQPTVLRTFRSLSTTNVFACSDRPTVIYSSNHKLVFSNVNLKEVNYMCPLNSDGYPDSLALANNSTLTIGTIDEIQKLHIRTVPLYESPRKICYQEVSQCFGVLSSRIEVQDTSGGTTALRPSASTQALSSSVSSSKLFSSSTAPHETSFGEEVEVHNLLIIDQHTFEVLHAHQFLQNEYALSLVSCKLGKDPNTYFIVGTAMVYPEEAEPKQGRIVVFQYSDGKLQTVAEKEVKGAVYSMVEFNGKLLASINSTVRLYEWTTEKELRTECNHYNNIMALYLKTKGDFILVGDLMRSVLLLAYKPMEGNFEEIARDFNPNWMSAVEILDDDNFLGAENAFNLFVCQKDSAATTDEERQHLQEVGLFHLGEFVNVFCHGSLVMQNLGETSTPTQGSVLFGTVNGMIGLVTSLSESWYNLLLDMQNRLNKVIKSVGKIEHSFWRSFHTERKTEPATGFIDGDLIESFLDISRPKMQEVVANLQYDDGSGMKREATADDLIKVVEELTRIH

Compound | Ki (CRBN-DDB1) | Dmax (CDK2)
CC(C)C1CC(COC(=O)NC2CN(c3cc(F)c(C4CCC(=O)NC4=O)c(F)c3)C2)C1 (stereo not drawn) [Compound 68, (3-isopropylcyclobutyl)methyl (1-(4-(2,6-dioxopiperidin-3-yl)-3,5-difluorophenyl)azetidin-3-yl)carbamate] | 100 to 1000 nM | > 80%
O=C1CCC(c2c(F)cc(N3CC(NC(=O)OC4CN(C(=O)Cc5ccccc5)C4)C3)cc2F)C(=O)N1 (stereo not drawn) [Compound 74, 1-(2-phenylacetyl)azetidin-3-yl (1-(4-(2,6-dioxopiperidin-3-yl)-3,5-difluorophenyl)azetidin-3-yl)carbamate] | ≤ 100 nM | 50 to 80%
Cn1c(N2CC(OC(=O)NC3CN(c4cc(F)c(C5CCC(=O)NC5=O)c(F)c4)C3)C2)nc2ccccc21 (stereo not drawn) [Compound 75, 1-(1-methyl-1H-benzo[d]imidazol-2-yl)azetidin-3-yl (1-(4-(2,6-dioxopiperidin-3-yl)-3,5-difluorophenyl)azetidin-3-yl)carbamate] | ≤ 100 nM | 50 to 80%
CN(C)C(=O)C12CC(OC(=O)NC3CN(c4cc(F)c(C5CCC(=O)NC5=O)c(F)c4)C3)(C1)C2 (stereo not drawn) [Compound 76, 3-(dimethylcarbamoyl)bicyclo[1.1.1]pentan-1-yl (1-(4-(2,6-dioxopiperidin-3-yl)-3,5-difluorophenyl)azetidin-3-yl)carbamate] | ≤ 100 nM | 10 to 50%
Cn1ccnc1N1CC(OC(=O)NC2CN(c3cc(F)c(C4CCC(=O)NC4=O)c(F)c3)C2)C1 (stereo not drawn) [Compound 77, 1-(1-methyl-1H-imidazol-2-yl)azetidin-3-yl (1-(4-(2,6-dioxopiperidin-3-yl)-3,5-difluorophenyl)azetidin-3-yl)carbamate] | ≤ 100 nM | 10 to 50%
CN(C(=O)C12CC(OC(=O)NC3CN(c4cc(F)c(C5CCC(=O)NC5=O)c(F)c4)C3)(C1)C2)C1CC1 (stereo not drawn) [Compound 78, 3-(cyclopropyl(methyl)carbamoyl)bicyclo[1.1.1]pentan-1-yl (1-(4-(2,6-dioxopiperidin-3-yl)-3,5-difluorophenyl)azetidin-3-yl)carbamate] | ≤ 100 nM | 50 to 80%
Cc1ccc(N2CC(OC(=O)NC3CN(c4cc(F)c(C5CCC(=O)NC5=O)c(F)c4)C3)C2)nc1 (stereo not drawn) [Compound 79, 1-(5-methylpyridin-2-yl)azetidin-3-yl (1-(4-(2,6-dioxopiperidin-3-yl)-3,5-difluorophenyl)azetidin-3-yl)carbamate] | ≤ 100 nM | 50 to 80%
Cc1cccc(N2CC(OC(=O)NC3CN(c4cc(F)c(C5CCC(=O)NC5=O)c(F)c4)C3)C2)n1 (stereo not drawn) [Compound 80, 1-(6-methylpyridin-2-yl)azetidin-3-yl (1-(4-(2,6-dioxopiperidin-3-yl)-3,5-difluorophenyl)azetidin-3-yl)carbamate] | ≤ 100 nM | 50 to 80%
CN(C(=O)C12CC(OC(=O)NC3CN(c4cc(F)c(C5CCC(=O)NC5=O)c(F)c4)C3)(C1)C2)c1ccccc1 (stereo not drawn) [Compound 81, 3-(methyl(phenyl)carbamoyl)bicyclo[1.1.1]pentan-1-yl (1-(4-(2,6-dioxopiperidin-3-yl)-3,5-difluorophenyl)azetidin-3-yl)carbamate] | ≤ 100 nM | > 80%
CN(CC1CC1)C(=O)C12CC(OC(=O)NC3CN(c4cc(F)c(C5CCC(=O)NC5=O)c(F)c4)C3)(C1)C2 (stereo not drawn) [Compound 82, 3-((cyclopropylmethyl)(methyl)carbamoyl)bicyclo[1.1.1]pentan-1-yl (1-(4-(2,6-dioxopiperidin-3-yl)-3,5-difluorophenyl)azetidin-3-yl)carbamate] | ≤ 100 nM | > 80%
O=C1CCC(c2c(F)cc(N3CC(NC(=O)OC4CN(c5ccccn5)C4)C3)cc2F)C(=O)N1 (stereo not drawn) [Compound 83, 1-(pyridin-2-yl)azetidin-3-yl (1-(4-(2,6-dioxopiperidin-3-yl)-3,5-difluorophenyl)azetidin-3-yl)carbamate] | ≤ 100 nM | 50 to 80%
O=C1CCC(c2c(F)cc(N3CC(NC(=O)OCC#CC4CC4)C3)cc2F)C(=O)N1 (stereo not drawn) [Compound 84, 3-cyclopropylprop-2-yn-1-yl (1-(4-(2,6-dioxopiperidin-3-yl)-3,5-difluorophenyl)azetidin-3-yl)carbamate] | ≤ 100 nM | 10 to 50%

Further lines, results first:

Ki (CRBN-DDB1) | Dmax (CDK2) | Compound
≤ 100 nM | > 80% | O=C1CCC(c2c(F)cc(N3CC[C@@H](NC(=O)OCC4CC5(CCC5)C4)C3)cc2F)C(=O)N1 (stereo partly drawn) [Compound 64, spiro[3.3]heptan-2-ylmethyl ((3R)-1-(4-(2,6-dioxopiperidin-3-yl)-3,5-difluorophenyl)pyrrolidin-3-yl)carbamate]
≤ 100 nM | > 80% | CC(C)(CCOC(=O)NC1CN(c2cc(F)c(C3CCC(=O)NC3=O)c(F)c2)C1)C1CC1 (stereo not drawn) [Compound 65, 3-cyclopropyl-3-methylbutyl (1-(4-(2,6-dioxopiperidin-3-yl)-3,5-difluorophenyl)azetidin-3-yl)carbamate]
≤ 100 nM | > 80% | CC1(CCCOC(=O)NC2CN(c3cc(F)c(C4CCC(=O)NC4=O)c(F)c3)C2)CC1 (stereo not drawn) [Compound 66, 3-(1-methylcyclopropyl)propyl (1-(4-(2,6-dioxopiperidin-3-yl)-3,5-difluorophenyl)azetidin-3-yl)carbamate]
≤ 100 nM | > 80% | O=C1CCC(c2c(F)cc(N3CC(NC(=O)OC4CC5(CCCCC5)C4)C3)cc2F)C(=O)N1 (stereo not drawn) [Compound 67, spiro[3.5]nonan-2-yl (1-(4-(2,6-dioxopiperidin-3-yl)-3,5-difluorophenyl)azetidin-3-yl)carbamate]
≤ 100 nM | 50 to 80% | O=C1CCC(c2c(F)cc(N3CC(NC(=O)OC4CN(c5nc6ccccc6o5)C4)C3)cc2F)C(=O)N1 (stereo not drawn) [Compound 69, 1-(benzo[d]oxazol-2-yl)azetidin-3-yl (1-(4-(2,6-dioxopiperidin-3-yl)-3,5-difluorophenyl)azetidin-3-yl)carbamate]
≤ 100 nM | 50 to 80% | Cc1ccccc1N(C)C(=O)N1CC(OC(=O)NC2CN(c3cc(F)c(C4CCC(=O)NC4=O)c(F)c3)C2)C1 (stereo not drawn) [Compound 70, 1-(methyl(o-tolyl)carbamoyl)azetidin-3-yl (1-(4-(2,6-dioxopiperidin-3-yl)-3,5-difluorophenyl)azetidin-3-yl)carbamate]
≤ 100 nM | 50 to 80% | CN(C(=O)N1CC(OC(=O)NC2CN(c3cc(F)c(C4CCC(=O)NC4=O)c(F)c3)C2)C1)c1ccccc1Cl (stereo not drawn) [Compound 71, 1-((2-chlorophenyl)(methyl)carbamoyl)azetidin-3-yl (1-(4-(2,6-dioxopiperidin-3-yl)-3,5-difluorophenyl)azetidin-3-yl)carbamate]
≤ 100 nM | > 80% | CN(C(=O)N1CC(OC(=O)NC2CN(c3cc(F)c(C4CCC(=O)NC4=O)c(F)c3)C2)C1)c1ccc(F)cc1 (stereo not drawn) [Compound 72, 1-((4-fluorophenyl)(methyl)carbamoyl)azetidin-3-yl (1-(4-(2,6-dioxopiperidin-3-yl)-3,5-difluorophenyl)azetidin-3-yl)carbamate]
≤ 100 nM | 50 to 80% | CN(C(=O)N1CC(OC(=O)NC2CN(c3cc(F)c(C4CCC(=O)NC4=O)c(F)c3)C2)C1)c1ccc(C#N)cc1 (stereo not drawn) [Compound 73, 1-((4-cyanophenyl)(methyl)carbamoyl)azetidin-3-yl (1-(4-(2,6-dioxopiperidin-3-yl)-3,5-difluorophenyl)azetidin-3-yl)carbamate]
